Results as given in patent US8476287B2, “3-hydroxy-5-arylisothiazole derivative” (Mochida Pharmaceutical Co., Ltd., priority 2009, dated 2013).

Target: T1, GPR40 of human origin (Homo sapiens, UniProt O14842)
T1 construct: expressed in transfected cells
Test: Agonist action on GPR40 of human origin (Ca2+ fluorescence in CHO cells)
Type: cell-based
Conditions: CHO cell strain stably expressing GPR40 of human origin; Ca2+ concentration fluctuation, fluorescent calcium indicator
Procedure: A CHO cell strain stably expressing GPR40 of human origin was used to determine the agonist action of a subject compound. This cell strain was seeded in a clear bottom 96 well plate at 4×10^4 cells/100 μL/well. The cell strain was cultured in a CO2 incubator overnight using a Ham's F-12 medium containing a 10% fetal bovine serum, 100 U/mL penicillin, 0.1 mg/mL streptomycin, and 400 μg/mL Geneticin. Calcium 4 Assay Kit (Molecular Devices) was used as a fluorescent calcium indicator. One mL of 77 mg/mL probenecid (Invitrogen) was added to 100 mL of a calcium indicator solution to prepare a solution (loading solution) mixed with a 20 mM HEPES-containing Hanks' balanced salt solution (HBSS) in equal proportions. 200 μL of the loading solution was added to the cells from which the culture solution was removed, and the cells were cultured in a CO2 incubator for 1 hour. The subject compound was diluted with a 20 mM HEPES-containing HBSS and was added to the cells by 50 μL, and the fluctuation of the Ca^2+ concentration was measured by an intracellular ion analyzer. The EC50 value of the subject compound was calculated using the dose-response curve of fluorescence intensity variation.

T1 sequence (O14842 whole entry): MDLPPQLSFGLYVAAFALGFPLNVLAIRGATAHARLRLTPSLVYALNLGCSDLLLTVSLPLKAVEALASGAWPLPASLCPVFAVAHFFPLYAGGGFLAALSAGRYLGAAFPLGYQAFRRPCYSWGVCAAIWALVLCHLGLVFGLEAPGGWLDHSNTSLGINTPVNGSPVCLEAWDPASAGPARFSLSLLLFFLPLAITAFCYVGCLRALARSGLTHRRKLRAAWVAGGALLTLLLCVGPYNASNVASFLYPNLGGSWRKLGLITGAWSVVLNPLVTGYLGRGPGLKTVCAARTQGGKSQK

Structure (SMILES) | EC50 [nM]
Cc1cc(OCCCO)cc(C)c1-c1cccc(COc2ccc(-c3cc(O)n[s+]3[O-])cc2)c1 (stereo not drawn) [Example 47, 5-(4-((3-(2,6-dimethyl-4-(3-hydroxypropoxy)phenyl)phenyl)methoxy)phenyl)isothiazol-3-ol 1-oxide(A)] | < 300
Cc1cc(OCCCS(C)(=O)=O)cc(C)c1-c1cccc(COc2ccc(-c3cc(O)n[s+]3[O-])cc2)c1 (stereo not drawn) [Example 44, 5-(4-((3-(2,6-dimethyl-4-(3-(methylsulfonyl)propoxy)phenyl)phenyl)methoxy)phenyl)isothiazol-3-ol 1-oxide(A)] | < 300
Cc1cccc(C)c1-c1cccc(COc2ccc(C3=CC(O)=NS3(=O)=O)cc2)c1 [Example 9, 5-(4-((3-(2,6-dimethylphenyl)phenyl)methoxy)phenyl)isothiazol-3-ol 1,1-dioxide] | 300 to 3000
CC(=O)NCCCOc1ccc(-c2cccc(COc3ccc(-c4cc(O)n[s+]4[O-])cc3)c2C)c(C)n1 (stereo not drawn) [Example 71, N-[3-[5-[3-[[4-(3-hydroxy-1-oxo-isothiazol-5-yl)phenoxy]methyl]-2-methylphenyl]-6-methylpyridin-2-yl]oxypropyl]acetamide(A)] | 300 to 3000
Cc1cc(OCCCS(C)(=O)=O)cc(C)c1-c1cccc(COc2ccc(-c3cc(O)n[s+]3[O-])cc2)c1C (stereo not drawn) [Example 23, 5-(4-((3-(2,6-dimethyl-4-(3-(methylsulfonyl)propoxy)phenyl)-2-methylphenyl)methoxy)phenyl)isothiazol-3-ol 1-oxide(A)] | < 300
[O-][s+]1nc(O)cc1-c1ccc(OC2CCc3c(Oc4ccccc4)cccc32)cc1 (stereo not drawn) [Example 124, 5-[4-[(4-phenoxy-2,3-dihydro-1H-inden-1-yl)oxy]phenyl]isothiazol-3-ol 1-oxide(A)] | < 300
Cc1cc(OCC2(C)COC2)c(F)c(C)c1-c1cccc(COc2ccc(-c3cc(O)n[s+]3[O-])cc2)c1 (stereo not drawn) [Example 43] | < 300
CC1(C)CC=C(c2cccc3c2CC[C@H]3Oc2ccc(-c3cc(O)n[s+]3[O-])cc2)CC1 (single isomer, unassigned) [Example 120] | 300 to 3000
Cc1cc(OCCCNS(C)(=O)=O)cc(C)c1-c1cccc(COc2ccc(-c3cc(O)n[s+]3[O-])cc2)c1 (stereo not drawn) [Example 72, N-[3-[4-[3-[[4-(3-hydroxy-1-oxo-isothiazol-5-yl)phenoxy]methyl]phenyl]-3,5-dimethylphenoxy]propyl]methanesulfonamide(A)] | < 300
[O-][s+]1nc(O)cc1-c1ccc(OC2CCc3c(OC4CCOCC4)cccc32)cc1 (stereo not drawn) [Example 132, 5-[4-[[4-(oxan-4-yloxy)-2,3-dihydro-1H-inden-1-yl]oxy]phenyl]isothiazol-3-ol 1-oxide(A)] | < 300
[O-][s+]1nc(O)cc1-c1ccc(O[C@@H]2CCc3c(-c4ccc(N5CCCCC5)nc4)cccc32)cc1 (single isomer, unassigned) [Example 118] | < 300
[O-][s+]1nc(O)cc1-c1ccc(OCc2cccc(Oc3ccccc3)c2)cc1 (stereo not drawn) [Example 2, 5-(4-((3-phenoxyphenyl)methoxy)phenyl)isothiazol-3-ol 1-oxide] | 300 to 3000
Cc1cc(OCCCS(C)(=O)=O)nc(C)c1-c1cccc(COc2ccc(-c3cc(O)n[s+]3[O-])cc2)c1 (stereo not drawn) [Example 24, 5-(4-((3-(2,4-dimethyl-6-(3-(methylsulfonyl)propoxy)pyridin-3-yl)phenyl)methoxy)phenyl)isothiazol-3-ol 1-oxide(A)] | < 300
[O-][s+]1nc(O)cc1-c1ccc(OC2CCc3c(OC4CCCCC4)cccc32)cc1 (stereo not drawn) [Example 131, 5-[4-[(4-cyclohexyloxy-2,3-dihydro-1H-inden-1-yl)oxy]phenyl]isothiazol-3-ol 1-oxide(A)] | < 300
Cc1cc(OC[C@H](O)CO)c(F)c(C)c1-c1cccc(COc2ccc(-c3cc(O)n[s+]3[O-])cc2)c1 (stereo partly drawn) [Example 59, 5-(4-((3-(4-((2R)-2,3-dihydroxypropoxy)-2,6-dimethyl-3-fluorophenyl)phenyl)methoxy)phenyl)isothiazol-3-ol 1-oxide(A)] | < 300
Cc1cccc(C)c1N1CCC[C@H](COc2ccc(-c3cc(O)n[s+]3[O-])cc2)C1 (stereo partly drawn) [Example 96, 5-[4-[[(3S)-1-(2,6-dimethylphenyl)piperidin-3-yl]methoxy]phenyl]isothiazol-3-ol 1-oxide (A)] | < 300
Cc1cc(OCC2(C)COC2)cc(C)c1-c1cccc(COc2ccc(-c3cc(O)n[s+]3[O-])cc2)c1C (stereo not drawn) [Example 42, 5-(4-((3-(2,6-dimethyl-4-((3-methyl-3-oxetanyl)methoxy)phenyl)-2-methylphenyl)methoxy)phenyl)isothiazol-3-ol 1-oxide(A)] | < 300
[O-][s+]1nc(O)cc1-c1ccc(OCc2cccc(Cl)c2Cl)cc1 (stereo not drawn) [Example 86, 5-[4-[(2,3-dichlorophenyl)methoxy]phenyl]isothiazol-3-ol 1-oxide(A)] | < 300
Cc1cc(OC2CCS(=O)(=O)CC2)cc(C)c1-c1cccc(COc2ccc(-c3cc(O)n[s+]3[O-])cc2)c1 (stereo not drawn) [Example 28, 5-(4-((3-(2,6-dimethyl-4-((1,1-dioxidetetrahydro-2H-thiopyran-4-yl)oxy)phenyl)phenyl)methoxy)phenyl)isothiazol-3-ol 1-oxide(A)] | < 300
[O-][s+]1nc(O)cc1-c1ccc(OCc2cccc3c2OCC3)cc1 (single isomer, unassigned) [Example 95, 5-[4-(2,3-dihydro-1-benzofuran-7-ylmethoxy)phenyl]isothiazol-3-ol 1-oxide(A)] | 300 to 3000
[O-][s+]1nc(O)cc1-c1ccc(OC2CCc3c(OCc4ccccc4)cccc32)cc1 (stereo not drawn) [Example 129, 5-[4-[(4-phenylmethoxy-2,3-dihydro-1H-inden-1-yl)oxy]phenyl]isothiazol-3-ol 1-oxide(A)] | < 300
Cc1cc(OCC[C@@H](C)O)cc(C)c1-c1cccc(COc2ccc(-c3cc(O)n[s+]3[O-])cc2)c1C (stereo partly drawn) [Example 64, 5-(4-((3-(2,6-dimethyl-4-((3R)-3-hydroxybutoxy)phenyl)-2-methylphenyl)methoxy)phenyl)isothiazol-3-ol 1-oxide(A)] | < 300
[O-][s+]1nc(O)cc1-c1ccc(OC2CCOc3cc(C(F)(F)F)ccc32)cc1 (stereo not drawn) [Example 83, 5-[4-[[7-(trifluoromethyl)-3,4-dihydro-2H-chromen-4-yl]oxy]phenyl]isothiazol-3-ol 1-oxide(A)] | 300 to 3000
COc1cc(Oc2cccc3c2CCC3Oc2ccc(-c3cc(O)n[s+]3[O-])cc2)ccn1 (stereo not drawn) [Example 126, 5-[4-[[4-(2-methoxypyridin-4-yl)oxy-2,3-dihydro-1H-inden-1-yl]oxy]phenyl]isothiazol-3-ol 1-oxide(A)] | < 300
CCOCCOc1cc(C)c(-c2cccc(COc3ccc(-c4cc(O)n[s+]4[O-])cc3)c2)c(C)c1F (stereo not drawn) [Example 22, 5-(4-((3-(2,6-dimethyl-4-(2-ethoxyethoxy)-3-fluorophenyl)phenyl)methoxy)phenyl)isothiazol-3-ol 1-oxide(A)] | < 300
CCOCCOc1cc(C)c(-c2cccc3c2CC[C@H]3Oc2ccc(-c3cc(O)n[s+]3[O-])cc2)c(C)c1 (single isomer, unassigned) [Example 139] | < 300
[O-][s+]1nc(O)cc1-c1ccc(OCCc2cccc(Oc3ccccc3)c2)cc1 (stereo not drawn) [Example 106, 5-[4-[2-(3-phenoxyphenyl)ethoxy]phenyl]isothiazol-3-ol 1-oxide] | 300 to 3000
